# Laboratory results taken from US20120015906A1, “USES OF BORTEZOMIB IN PREDICTING SURVIVAL IN MULTIPLE MYELOMA PATIENTS” (priority 2009, published 2012).
# Tests used:
# Assay type in all cases: in vivo, human
# [1] = tested on: CD138-purified plasma cells; test: Gene expression profiling of plasma cells prior to and 48 hr after bortezomib test-dose; conditions: for Mean log2 Expression Change / Mean log2 Expression Change, Average: 48 hr after test-dose vs baseline
# Procedure: Pharmacogenomic (PG) studies were performed as part of two TT3 trials (2003-33, n=303; 2006-66, n=177), obtaining plasma cells prior to and 48 hr after a bortezomib test-dose (1.0 mg/m2), which was accomplished in 142 patients receiving 2003-33 (training set) and […] receiving 2006-66 (test set). […] A continuous risk score was calculated and an optimal cut-point for event-free survival separation determined. The independent prognostic power of the binary risk score was tested in 2006-66. Multivariate analyses (MV) were employed to determine the role of post-bortezomib risk in relationship to standard prognostic variables and 70-gene baseline risk model.
# The details of Total Therapy 3 are known in the art. In brief, protocol 2003-33 enrolled 303 newly diagnosed patients with myeloma into a tandem transplantation program, employing 2 cycles each of induction chemotherapy with VTD-PACE (bortezomib, thalidomide, dexamethasone; 4-day continuous infusions of cisplatin, doxorubicine, cyclophosphamide, etoposide) prior to and after melphalan-based transplantation, followed by VTD maintenance. A pharmaco-genomic aspect of the protocol called for gene expression profiling analyses of CD138-purified plasma cells obtained prior to and 48 hr following a test-dose application of bortezomib (1.0 mg/m2). The observation of prognostic consequences of bortezomib-induced gene expression profiling alterations provided the rationale for accrual of an additional 177 patients to an extension TT3 protocol, 2006-66, in order to validate the pharmaco-genomic data generated in the 2003-33 trial. Gene expression profiling baseline data were available in 275 and 169 patients entered on 2003-33 and 2006-66, respectively, 142 and 128 of whom had paired samples at baseline and 48 hr after test-dosing.
# Multiple myeloma plasma cells were purified from bone marrow aspirates prior to and 48 hr following in vivo exposure to 1.0 mg/m2 of bortezomib in 142 of 303 patients enrolled in UARK2003-33 and 128 of 177 accrued to UARK2006-66. RNA was isolated from tumor cells and run on Affymetrix U133Plus2.0 microarrays. Multiple myeloma plasma cells were isolated from heparinized bone marrow (BM) aspirates using CD138-based immunomagnetic bead selection using the Miltenyi AutoMacs device (Miltenyi, Bergisch Gladbach, Germany). Peripheral Blood mononuclear cells were obtained through Ficoll gradient centrifugation. RNA purification, cDNA synthesis, cRNA preparation, and hybridization to the Human Genome U133Plus 2.0 GeneChip microarrays (Affymetrix, Santa Clara, Calif.) were performed.
# The Affymetrix U133Plus2.0 microarrays were preprocessed and normalized with MAS5.0 software. […] Each of these 1051 genes was then correlated with event-free survival in a Cox regression model and ranked the genes by p-values. In order to explore the various potential survival implications, two sets of covariates were considered in the Cox model for each gene: a) percent change at 48 hr compared to the baseline expression, and b) 48 hr expression.
# [2] = tested on: proteasome proteins; test: Mass spectrometry of proteasome proteins after bortezomib; conditions: mass spectroscopy, protein level
# Description: Representative examples of proteasome up-regulation after bortezomib at both the RNA and protein levels are depicted.
# For further validation of GEP-derived data, the effects of bortezomib on proteasome proteins was also investigated by mass spectroscopy, (FIG. 8A). Representative examples of proteasome up-regulation after bortezomib at both the RNA and protein levels are depicted in FIG. 8A-8B.
# [3] = tested on: proteasome genes; test: Proteasome gene expression changes after short-term exposure (test-dosing) to bortezomib, dexamethasone, thalidomide, melphalan; conditions: test-dosing in myeloma patients
# Description: In earlier studies, pharmacogenomics was used to identify genes altered by short-term exposure of therapy-naïve cases to thalidomide and dexamethasone. Little to no overlap was found in the genes altered by these agents with those altered by bortezomib.
smiles,measurement,setting,value
CC(C)C[C@H](NC(=O)[C@H](Cc1ccccc1)NC(=O)c1cnccn1)B(O)O [bortezomib],Mean log2 Expression Change,[1]; ACVR1C 1552519_at,−0.17
same,Mean log2 Expression Change,[1]; ALDOA 238996_x_at,0.36
same,Mean log2 Expression Change,[1]; ANKRD37 242548_x_at,−0.39
same,Mean log2 Expression Change,[1]; BIRC5 210334_x_at,−0.35
same,Mean log2 Expression Change,[1]; C1orf31 225638_at,0.18
same,Mean log2 Expression Change,[1]; C1orf128 229856_s_at,−0.32
same,Mean log2 Expression Change,[1]; C9orf130 227893_at,0.16
same,Mean log2 Expression Change,[1]; C14orf100 223215_s_at,0.12
same,Mean log2 Expression Change,[1]; C17orf60 217513_at,0.32
same,Mean log2 Expression Change,[1]; CHORDC1 218566_s_at,0.15
same,Mean log2 Expression Change,[1]; CISH 221223_x_at,−0.20
same,Mean log2 Expression Change,[1]; CISH 223377_x_at,−0.18
same,Mean log2 Expression Change,[1]; CISH 223961_s_at,−0.32
same,Mean log2 Expression Change,[1]; COMMD8 218351_at,0.16
same,Mean log2 Expression Change,[1]; COPS5 201652_at,0.12
same,Mean log2 Expression Change,[1]; COX6C 201754_at,0.12
same,Mean log2 Expression Change,[1]; CRYGS 223643_at,−0.18
same,Mean log2 Expression Change,[1]; ENSA 202596_at,0.12
same,Mean log2 Expression Change,[1]; FLNA 214752_x_at,0.18
same,Mean log2 Expression Change,[1]; FOSB 202768_at,−0.54
same,Mean log2 Expression Change,[1]; FUNDC1 235346_at,0.13
same,Mean log2 Expression Change,[1]; GABARAPL1 208869_s_at,0.20
same,Mean log2 Expression Change,[1]; HIST1H3B 208576_s_at,0.40
same,Mean log2 Expression Change,[1]; HNRPC 200014_s_at,0.11
same,Mean log2 Expression Change,[1]; HNRPC 212626_x_at,0.16
same,Mean log2 Expression Change,[1]; K1AA1394 228984_at,−0.29
same,Mean log2 Expression Change,[1]; K1AA1754 225582_at,−0.14
same,Mean log2 Expression Change,[1]; KLHL7 223250_at,0.09
same,Mean log2 Expression Change,[1]; LAP3 217933_s_at,0.15
same,Mean log2 Expression Change,[1]; LAPTM4A 200673_at,0.12
same,Mean log2 Expression Change,[1]; LOC400657 226924_at,0.11
same,Mean log2 Expression Change,[1]; LOC643318 1557633_at,−0.29
same,Mean log2 Expression Change,[1]; LOC644250 230292_at,−0.34
same,Mean log2 Expression Change,[1]; LZTR2 1564423_a_at,−0.23
same,Mean log2 Expression Change,[1]; MGC61598 226499_at,−0.29
same,Mean log2 Expression Change,[1]; MRPL47 223480_s_at,0.09
same,Mean log2 Expression Change,[1]; NMT1 201157_s_at,0.12
same,Mean log2 Expression Change,[1]; NOLA1 219110_at,0.11
same,Mean log2 Expression Change,[1]; NR4A1 202340_x_at,−0.79
same,Mean log2 Expression Change,[1]; NXT2 209628_at,0.13
same,Mean log2 Expression Change,[1]; PDE4B 203708_at,−0.25
same,Mean log2 Expression Change,[1]; PDE4B 211302_s_at,−0.28
same,Mean log2 Expression Change,[1]; PDE4B 215671_at,−0.42
same,Mean log2 Expression Change,[1]; PSMA4 203396_at,0.14
same,Mean log2 Expression Change,[1]; PSMA7 201114_x_at,0.21
same,Mean log2 Expression Change,[1]; PSMB2 200039_s_at,0.17
same,Mean log2 Expression Change,[1]; PSMB3 201400_at,0.13
same,Mean log2 Expression Change,[1]; PSMB4 202243_s_at,0.19
same,Mean log2 Expression Change,[1]; PSMB4 202244_at,0.15
same,Mean log2 Expression Change,[1]; PSMB7 200786_at,0.15
same,Mean log2 Expression Change,[1]; PSMC4 201252_at,0.16
same,Mean log2 Expression Change,[1]; PSMC5 209503_s_at,0.17
same,Mean log2 Expression Change,[1]; PSMD2 200830_at,0.13
same,Mean log2 Expression Change,[1]; PSMD4 200882_s_at,0.19
same,Mean log2 Expression Change,[1]; PSMD4 210460_s_at,0.19
same,Mean log2 Expression Change,[1]; PSMD4 211609_x_at,0.20
same,Mean log2 Expression Change,[1]; PSMD14 212296_at,0.23
same,Mean log2 Expression Change,[1]; RBM33 238801_at,−0.26
same,Mean log2 Expression Change,[1]; RPL41 216215_s_at,−0.16
same,Mean log2 Expression Change,[1]; SLC25A14 204587_at,−0.10
same,Mean log2 Expression Change,[1]; SNRPD1 202690_s_at,0.11
same,Mean log2 Expression Change,[1]; STAU2 229417_at,0.22
same,Mean log2 Expression Change,[1]; STAU2 233909_at,−0.40
same,Mean log2 Expression Change,[1]; STX11 235670_at,−0.14
same,Mean log2 Expression Change,[1]; SUMO1 211069_s_at,0.10
same,Mean log2 Expression Change,[1]; TAGAP 1552542_s_at,−0.19
same,Mean log2 Expression Change,[1]; TBC1D9 212960_at,−0.19
same,Mean log2 Expression Change,[1]; TMC8 236554_x_at,0.24
same,Mean log2 Expression Change,[1]; TUBA6 209251_x_at,0.12
same,Mean log2 Expression Change,[1]; UBPH 205687_at,0.16
same,Mean log2 Expression Change,[1]; WIRE 212050_at,−0.10
same,Mean log2 Expression Change,[1]; ZNF710 213658_at,−0.12
same,"Mean log2 Expression Change, Average",[1]; average of the Bad Genes,0.13
same,"Mean log2 Expression Change, Average",[1]; average of the Good Genes,−0.16
same,average expression decrease of the good genes from baseline to post-bortezomib,[1]; high-risk group,1.22 fold
same,average expression increase of the bad genes from baseline to post-bortezomib,[1]; high-risk group,1.21 fold
same,average expression decrease of the good genes from baseline to post-bortezomib,[1]; low-risk group,1.09 fold
same,average expression increase of the bad genes from baseline to post-bortezomib,[1]; low-risk group,1.07 fold
same,Mean log2 Expression Change,[1]; probeset 226399_at (no gene symbol),0.09
same,Mean log2 Expression Change,[1]; probeset 227524_at (no gene symbol),−0.17
same,Mean log2 Expression Change,[1]; probeset 229388_at (no gene symbol),0.22
same,Mean log2 Expression Change,[1]; probeset 236986_at (no gene symbol),−0.13
same,Mean log2 Expression Change,[1]; probeset 239082_at (no gene symbol),−0.11
same,Mean log2 Expression Change,"[1]; probeset 239343_at (chr12q23.3, no gene symbol)",0.19
same,Mean log2 Expression Change,[1]; probeset 1561060_at (no gene symbol),−0.27
same,proteasome proteins after bortezomib,[2],up-regulation
same,proteasome gene expression change after short-term exposure,[3],hyper-activation of proteasome genes
